# Measured values as given in patent US8524766B2, “Modulators of dopamine neurotransmission” (NSAB, Filial af Neurosearch Sweden AB, Sverige, priority 2008, dated 2013).
# Test system: DOPAC (3,4-dihydroxyphenylacetic acid) in the rat striatum
# Assay: Increase of DOPAC in the rat striatum after systemic administration (in vivo neurochemistry)
# Details: estimated ED50 on increase of DOPAC in rat striatum, systemic administration (s.c.), curve fitting
# Description: After the behavioural activity sessions, the rats are decapitated and their brains rapidly taken out and put on an ice-cold petri-dish. The limbic forebrain, the striatum, the frontal cortex and the remaining hemispheral parts of each rat are dissected and frozen. Each brain part is subsequently analyzed with respect to its content of monoamines and their metabolites.
# The monoamine transmitter substances (NA (noradrenaline), DA (dopamine), 5-HT (serotonin)) as well as their amine (NM (normethanephrine), 3-MT (3-methoxytyramine)) and acid (DOPAC (3,4-dihydroxyphenylacetic acid), 5-HIAA (5-hydroxyindoleacetic acid), HVA (homovanillic acid)) metabolites are quantified in brain tissue homogenates by HPLC separations and electrochemical detection.
# The analytical method is based on two chromatographic separations dedicated for amines or acids. Two chromatographic systems share a common auto injector with a 10-port valve and two sample loops for simultaneous injection on the two systems. Both systems are equipped with a reverse phase column (Luna C18(2), dp 3 μm, 50*2 mm i.d., Phenomenex) and electrochemical detection is accomplished at two potentials on glassy carbon electrodes (MF-1000, Bioanalytical Systems, Inc.). The column effluent is passed via a T-connection to the detection cell or to a waste outlet. This is accomplished by two solenoid valves, which block either the waste or detector outlet. By preventing the chromatographic front from reaching the detector, better detection conditions are achieved. The aqueous mobile phase (0.4 ml/min) for the acid system contains citric acid 14 mM, sodium citrate 10 mM, MeOH 15% (v/v) and EDTA 0.1 mM. Detection potentials relative to Ag/AgCl reference are 0.45 and 0.60V. The aqueous ion pairing mobile phase (0.5 ml/min) for the amine system contains citric acid 5 mM, sodium citrate 10 mM, MeOH 9% (v/v), MeCN 10.5% v/v), decane sulfonic acid 0.45 mM, and EDTA 0.1 mM. Detection potentials relative to Ag/AgCl reference are 0.45 and 0.65V.
# ED50 values for the increase of DOPAC in striatum are calculated by curve fitting.
row,Structure (SMILES),ED50 DOPAC*
1,"CCCNCC1CCc2ccc(S(C)(=O)=O)cc2O1 (stereo not shown) [Example 23, N-{[7-(METHYLSULFONYL)-3,4-DIHYDRO-2H-CHROMEN-2-YL]METHYL}-N—PROPAN-1-AMINE]",14 µmol/kg

# Same assay, conditions: sc; estimated ED50 on increase of DOPAC in rat striatum, systemic administration (s.c.), curve fitting
row,Structure (SMILES),ED50
1,"CCNC[C@H]1COc2c(F)cc(S(C)(=O)=O)cc2O1 [Example 19, N-{[(2S)-5-FLUORO-7-(METHYLSULFONYL)-2,3-DIHYDRO-1,4-BENZODIOXIN-2-YL]METHYL}ETHANAMINE]",< 3.7 µmol/kg
2,"CCCNC[C@@H]1COc2ccc(S(C)(=O)=O)cc2O1 [Example 2, N-{[(2R)-7-(METHYLSULFONYL)-2,3-DIHYDRO-1,4-BENZODIOXIN-2-YL]METHYL}-PROPAN-1-AMINE]",47 µmol/kg
3,"CS(=O)(=O)c1ccc2c(c1)O[C@@H](CN1CCCCC1)CO2 [Example 7, 1-{[(2S)-7-(METHYLSULFONYL)-2,3-DIHYDRO-1,4-BENZODIOXIN-2-YL]METHYL}PIPERIDINE]",12 µmol/kg
4,"CCCN(CCC)CC1COc2ccc(S(C)(=O)=O)cc2O1 (stereo not shown) [Example 16, N-{[7-(METHYLSULFONYL)-2,3-DIHYDRO-1,4-BENZODIOXIN-2-YL]METHYL}-N-PROPYLPROPAN-1-AMINE]",29 µmol/kg
5,"CCCNC[C@H]1COc2ccc(S(C)(=O)=O)cc2O1 [Example 3, N-{[(2S)-7-(METHYLSULFONYL)-2,3-DIHYDRO-1,4-BENZODIOXIN-2-YL]METHYL}-PROPAN-1-AMINE]",6.1 µmol/kg
6,"CCCNC[C@H]1COc2c(F)cc(S(C)(=O)=O)cc2O1 [Example 21, N-{[(2S)-5-FLUORO-7-(METHYLSULFONYL)-2,3-DIHYDRO-1,4-BENZODIOXIN-2-YL]METHYL}PROPAN-1-AMINE]",6.8 µmol/kg

# Test system: drug-naive rats
# Assay: Locomotor activity in drug-naive rats (in vivo behaviour)
# Parameters: species or system rat
# Details: 3.7 μmol/kg, recorded for 60 minutes, ± SEM
# Description: Photobeam sensors are spaced 2.5 cm apart.
row,Structure (SMILES),Locomotor activity
1,"CCNC[C@H]1COc2c(F)cc(S(C)(=O)=O)cc2O1 [Example 19, N-{[(2S)-5-FLUORO-7-(METHYLSULFONYL)-2,3-DIHYDRO-1,4-BENZODIOXIN-2-YL]METHYL}ETHANAMINE]",6123 ± 710 counts/60 min
2,"CCCNC[C@@H]1COc2ccc(S(C)(=O)=O)cc2O1 [Example 2, N-{[(2R)-7-(METHYLSULFONYL)-2,3-DIHYDRO-1,4-BENZODIOXIN-2-YL]METHYL}-PROPAN-1-AMINE]",10728 ± 1557 counts/60 min
3,"CS(=O)(=O)c1ccc2c(c1)O[C@@H](CN1CCCCC1)CO2 [Example 7, 1-{[(2S)-7-(METHYLSULFONYL)-2,3-DIHYDRO-1,4-BENZODIOXIN-2-YL]METHYL}PIPERIDINE]",7905 ± 656 counts/60 min
4,"CCCN(CCC)CC1COc2ccc(S(C)(=O)=O)cc2O1 (stereo not shown) [Example 16, N-{[7-(METHYLSULFONYL)-2,3-DIHYDRO-1,4-BENZODIOXIN-2-YL]METHYL}-N-PROPYLPROPAN-1-AMINE]",13645 ± 3301 counts/60 min
5,"CCCNCC1CCc2ccc(S(C)(=O)=O)cc2O1 (stereo not shown) [Example 23, N-{[7-(METHYLSULFONYL)-3,4-DIHYDRO-2H-CHROMEN-2-YL]METHYL}-N—PROPAN-1-AMINE]",9551 ± 1284 counts/60 min
6,"CCCNC[C@H]1COc2ccc(S(C)(=O)=O)cc2O1 [Example 3, N-{[(2S)-7-(METHYLSULFONYL)-2,3-DIHYDRO-1,4-BENZODIOXIN-2-YL]METHYL}-PROPAN-1-AMINE]",10297 ± 860 counts/60 min
7,"CCCNC[C@H]1COc2c(F)cc(S(C)(=O)=O)cc2O1 [Example 21, N-{[(2S)-5-FLUORO-7-(METHYLSULFONYL)-2,3-DIHYDRO-1,4-BENZODIOXIN-2-YL]METHYL}PROPAN-1-AMINE]",12080 ± 1292 counts/60 min

# Same assay, conditions: 11 μmol/kg, recorded for 60 minutes, ± SEM
row,Structure (SMILES),Locomotor activity
1,"CCNC[C@H]1COc2c(F)cc(S(C)(=O)=O)cc2O1 [Example 19, N-{[(2S)-5-FLUORO-7-(METHYLSULFONYL)-2,3-DIHYDRO-1,4-BENZODIOXIN-2-YL]METHYL}ETHANAMINE]",3191 ± 387 counts/60 min
2,"CCCNC[C@@H]1COc2ccc(S(C)(=O)=O)cc2O1 [Example 2, N-{[(2R)-7-(METHYLSULFONYL)-2,3-DIHYDRO-1,4-BENZODIOXIN-2-YL]METHYL}-PROPAN-1-AMINE]",10346 ± 857 counts/60 min
3,"CS(=O)(=O)c1ccc2c(c1)O[C@@H](CN1CCCCC1)CO2 [Example 7, 1-{[(2S)-7-(METHYLSULFONYL)-2,3-DIHYDRO-1,4-BENZODIOXIN-2-YL]METHYL}PIPERIDINE]",5469 ± 734 counts/60 min
4,"CCCN(CCC)CC1COc2ccc(S(C)(=O)=O)cc2O1 (stereo not shown) [Example 16, N-{[7-(METHYLSULFONYL)-2,3-DIHYDRO-1,4-BENZODIOXIN-2-YL]METHYL}-N-PROPYLPROPAN-1-AMINE]",11807 ± 2628 counts/60 min
5,"CCCNCC1CCc2ccc(S(C)(=O)=O)cc2O1 (stereo not shown) [Example 23, N-{[7-(METHYLSULFONYL)-3,4-DIHYDRO-2H-CHROMEN-2-YL]METHYL}-N—PROPAN-1-AMINE]",9722 ± 1247 counts/60 min
6,"CCCNC[C@H]1COc2ccc(S(C)(=O)=O)cc2O1 [Example 3, N-{[(2S)-7-(METHYLSULFONYL)-2,3-DIHYDRO-1,4-BENZODIOXIN-2-YL]METHYL}-PROPAN-1-AMINE]",8973 ± 2186 counts/60 min
7,"CCCNC[C@H]1COc2c(F)cc(S(C)(=O)=O)cc2O1 [Example 21, N-{[(2S)-5-FLUORO-7-(METHYLSULFONYL)-2,3-DIHYDRO-1,4-BENZODIOXIN-2-YL]METHYL}PROPAN-1-AMINE]",8930 ± 631 counts/60 min

# Same assay, conditions: 33 μmol/kg, recorded for 60 minutes, ± SEM
row,Structure (SMILES),Locomotor activity
1,"CCNC[C@H]1COc2c(F)cc(S(C)(=O)=O)cc2O1 [Example 19, N-{[(2S)-5-FLUORO-7-(METHYLSULFONYL)-2,3-DIHYDRO-1,4-BENZODIOXIN-2-YL]METHYL}ETHANAMINE]",1936 ± 370 counts/60 min
2,"CCCNC[C@@H]1COc2ccc(S(C)(=O)=O)cc2O1 [Example 2, N-{[(2R)-7-(METHYLSULFONYL)-2,3-DIHYDRO-1,4-BENZODIOXIN-2-YL]METHYL}-PROPAN-1-AMINE]",11427 ± 1559 counts/60 min
3,"CS(=O)(=O)c1ccc2c(c1)O[C@@H](CN1CCCCC1)CO2 [Example 7, 1-{[(2S)-7-(METHYLSULFONYL)-2,3-DIHYDRO-1,4-BENZODIOXIN-2-YL]METHYL}PIPERIDINE]",3334 ± 780 counts/60 min
4,"CCCN(CCC)CC1COc2ccc(S(C)(=O)=O)cc2O1 (stereo not shown) [Example 16, N-{[7-(METHYLSULFONYL)-2,3-DIHYDRO-1,4-BENZODIOXIN-2-YL]METHYL}-N-PROPYLPROPAN-1-AMINE]",18642 ± 2454 counts/60 min
5,"CCCNCC1CCc2ccc(S(C)(=O)=O)cc2O1 (stereo not shown) [Example 23, N-{[7-(METHYLSULFONYL)-3,4-DIHYDRO-2H-CHROMEN-2-YL]METHYL}-N—PROPAN-1-AMINE]",7700 ± 1039 counts/60 min
6,"CCCNC[C@H]1COc2ccc(S(C)(=O)=O)cc2O1 [Example 3, N-{[(2S)-7-(METHYLSULFONYL)-2,3-DIHYDRO-1,4-BENZODIOXIN-2-YL]METHYL}-PROPAN-1-AMINE]",6830 ± 128 counts/60 min
7,"CCCNC[C@H]1COc2c(F)cc(S(C)(=O)=O)cc2O1 [Example 21, N-{[(2S)-5-FLUORO-7-(METHYLSULFONYL)-2,3-DIHYDRO-1,4-BENZODIOXIN-2-YL]METHYL}PROPAN-1-AMINE]",4430 ± 775 counts/60 min
